From ChEMBL document CHEMBL4507268 (2021)

Columns and labels:
[1] = target: T1, SNF-related serine/threonine-protein kinase (Homo sapiens) (UniProt Q9NRH2); conditions: Compound concentration 1000.0 nM
T1 sequence (whole entry): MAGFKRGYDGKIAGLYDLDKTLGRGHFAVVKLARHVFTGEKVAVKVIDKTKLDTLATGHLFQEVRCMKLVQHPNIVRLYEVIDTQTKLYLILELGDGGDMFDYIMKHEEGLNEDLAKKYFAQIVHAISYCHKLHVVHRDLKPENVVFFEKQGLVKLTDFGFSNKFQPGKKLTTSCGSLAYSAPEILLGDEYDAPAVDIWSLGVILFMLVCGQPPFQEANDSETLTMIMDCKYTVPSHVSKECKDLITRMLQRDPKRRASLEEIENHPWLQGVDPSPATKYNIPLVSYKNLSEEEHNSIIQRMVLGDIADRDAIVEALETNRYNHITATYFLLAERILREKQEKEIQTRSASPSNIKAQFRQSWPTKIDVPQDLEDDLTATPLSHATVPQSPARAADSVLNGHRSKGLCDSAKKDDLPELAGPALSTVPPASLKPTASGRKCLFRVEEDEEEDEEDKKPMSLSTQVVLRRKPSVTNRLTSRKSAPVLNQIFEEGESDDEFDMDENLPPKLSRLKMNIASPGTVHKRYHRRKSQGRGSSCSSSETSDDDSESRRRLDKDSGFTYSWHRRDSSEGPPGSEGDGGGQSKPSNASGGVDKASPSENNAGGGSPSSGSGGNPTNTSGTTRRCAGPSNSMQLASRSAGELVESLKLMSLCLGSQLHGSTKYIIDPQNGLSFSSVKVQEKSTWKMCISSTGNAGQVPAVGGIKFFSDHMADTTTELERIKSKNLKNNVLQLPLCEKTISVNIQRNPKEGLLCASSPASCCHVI

[2] = target: Cyclin-dependent kinase 8 (Homo sapiens) (UniProt P49336); conditions: Compound concentration 1000.0 nM
[3] = target: Muscarinic acetylcholine receptor M5 (Homo sapiens) (UniProt P08912); conditions: Compound concentration 10.0 uM
[4] = target: Calcium/calmodulin-dependent protein kinase type II subunit delta (Homo sapiens) (UniProt Q13557); conditions: Compound concentration 1000.0 nM
Calcium/calmodulin-dependent protein kinase type II subunit delta (Homo sapiens), sequence (Q13557 whole entry): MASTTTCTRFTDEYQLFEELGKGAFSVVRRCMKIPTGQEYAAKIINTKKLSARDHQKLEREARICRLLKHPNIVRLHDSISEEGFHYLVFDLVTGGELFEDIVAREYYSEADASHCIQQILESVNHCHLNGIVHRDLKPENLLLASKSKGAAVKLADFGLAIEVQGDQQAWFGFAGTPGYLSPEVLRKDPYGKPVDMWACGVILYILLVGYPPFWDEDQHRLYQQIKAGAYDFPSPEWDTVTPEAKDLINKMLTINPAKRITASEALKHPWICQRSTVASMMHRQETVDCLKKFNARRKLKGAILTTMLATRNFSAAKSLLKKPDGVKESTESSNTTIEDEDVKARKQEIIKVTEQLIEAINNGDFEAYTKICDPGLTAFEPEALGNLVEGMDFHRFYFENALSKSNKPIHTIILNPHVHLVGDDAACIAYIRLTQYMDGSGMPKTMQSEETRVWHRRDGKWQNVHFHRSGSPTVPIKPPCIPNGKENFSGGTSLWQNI

[5] = system: Epidermal growth factor receptor (Homo sapiens), P00533 [UNDEFINED MUTATION]; conditions: Compound concentration 1000.0 nM
[6] = target: Ankyrin repeat and protein kinase domain-containing protein 1 (Homo sapiens) (UniProt Q8NFD2); conditions: Compound concentration 1000.0 nM
Ankyrin repeat and protein kinase domain-containing protein 1 (Homo sapiens), sequence (Q8NFD2 whole entry, the tested form may be a part): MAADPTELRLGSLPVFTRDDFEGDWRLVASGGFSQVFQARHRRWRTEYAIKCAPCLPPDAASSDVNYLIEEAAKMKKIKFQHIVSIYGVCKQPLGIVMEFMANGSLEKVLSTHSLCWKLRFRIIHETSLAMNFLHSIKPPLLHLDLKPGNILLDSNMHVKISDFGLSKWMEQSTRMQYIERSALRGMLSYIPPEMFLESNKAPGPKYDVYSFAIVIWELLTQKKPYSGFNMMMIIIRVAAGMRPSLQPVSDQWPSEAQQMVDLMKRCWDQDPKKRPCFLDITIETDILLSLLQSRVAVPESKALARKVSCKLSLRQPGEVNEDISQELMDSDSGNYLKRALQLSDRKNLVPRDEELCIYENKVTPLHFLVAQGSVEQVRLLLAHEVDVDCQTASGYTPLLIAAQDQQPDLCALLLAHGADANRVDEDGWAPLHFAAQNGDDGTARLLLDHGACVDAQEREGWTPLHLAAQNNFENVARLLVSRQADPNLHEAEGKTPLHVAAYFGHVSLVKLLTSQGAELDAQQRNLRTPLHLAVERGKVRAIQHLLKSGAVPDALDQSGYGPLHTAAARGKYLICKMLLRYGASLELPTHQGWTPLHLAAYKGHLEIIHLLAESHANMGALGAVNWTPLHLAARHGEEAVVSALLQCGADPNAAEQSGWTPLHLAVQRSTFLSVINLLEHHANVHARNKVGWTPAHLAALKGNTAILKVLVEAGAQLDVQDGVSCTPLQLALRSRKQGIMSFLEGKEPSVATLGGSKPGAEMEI

[7] = target: T2, cAMP-dependent protein kinase catalytic subunit PRKX (Homo sapiens) (UniProt P51817); conditions: Compound concentration 1000.0 nM
T2 sequence (whole entry): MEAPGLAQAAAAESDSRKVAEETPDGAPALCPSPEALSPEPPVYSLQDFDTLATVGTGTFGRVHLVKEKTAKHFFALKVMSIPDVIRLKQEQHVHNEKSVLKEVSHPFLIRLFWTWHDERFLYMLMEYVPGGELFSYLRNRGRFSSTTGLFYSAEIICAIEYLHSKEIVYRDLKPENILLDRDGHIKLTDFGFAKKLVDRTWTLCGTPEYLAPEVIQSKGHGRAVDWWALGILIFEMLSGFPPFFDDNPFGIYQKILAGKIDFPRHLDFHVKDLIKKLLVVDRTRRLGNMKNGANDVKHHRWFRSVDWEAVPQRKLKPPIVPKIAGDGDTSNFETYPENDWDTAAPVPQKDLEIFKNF

[8] = target: Mitogen-activated protein kinase kinase kinase 1 (Homo sapiens) (UniProt Q13233); conditions: Compound concentration 1000.0 nM
Mitogen-activated protein kinase kinase kinase 1 (Homo sapiens), sequence (Q13233 whole entry): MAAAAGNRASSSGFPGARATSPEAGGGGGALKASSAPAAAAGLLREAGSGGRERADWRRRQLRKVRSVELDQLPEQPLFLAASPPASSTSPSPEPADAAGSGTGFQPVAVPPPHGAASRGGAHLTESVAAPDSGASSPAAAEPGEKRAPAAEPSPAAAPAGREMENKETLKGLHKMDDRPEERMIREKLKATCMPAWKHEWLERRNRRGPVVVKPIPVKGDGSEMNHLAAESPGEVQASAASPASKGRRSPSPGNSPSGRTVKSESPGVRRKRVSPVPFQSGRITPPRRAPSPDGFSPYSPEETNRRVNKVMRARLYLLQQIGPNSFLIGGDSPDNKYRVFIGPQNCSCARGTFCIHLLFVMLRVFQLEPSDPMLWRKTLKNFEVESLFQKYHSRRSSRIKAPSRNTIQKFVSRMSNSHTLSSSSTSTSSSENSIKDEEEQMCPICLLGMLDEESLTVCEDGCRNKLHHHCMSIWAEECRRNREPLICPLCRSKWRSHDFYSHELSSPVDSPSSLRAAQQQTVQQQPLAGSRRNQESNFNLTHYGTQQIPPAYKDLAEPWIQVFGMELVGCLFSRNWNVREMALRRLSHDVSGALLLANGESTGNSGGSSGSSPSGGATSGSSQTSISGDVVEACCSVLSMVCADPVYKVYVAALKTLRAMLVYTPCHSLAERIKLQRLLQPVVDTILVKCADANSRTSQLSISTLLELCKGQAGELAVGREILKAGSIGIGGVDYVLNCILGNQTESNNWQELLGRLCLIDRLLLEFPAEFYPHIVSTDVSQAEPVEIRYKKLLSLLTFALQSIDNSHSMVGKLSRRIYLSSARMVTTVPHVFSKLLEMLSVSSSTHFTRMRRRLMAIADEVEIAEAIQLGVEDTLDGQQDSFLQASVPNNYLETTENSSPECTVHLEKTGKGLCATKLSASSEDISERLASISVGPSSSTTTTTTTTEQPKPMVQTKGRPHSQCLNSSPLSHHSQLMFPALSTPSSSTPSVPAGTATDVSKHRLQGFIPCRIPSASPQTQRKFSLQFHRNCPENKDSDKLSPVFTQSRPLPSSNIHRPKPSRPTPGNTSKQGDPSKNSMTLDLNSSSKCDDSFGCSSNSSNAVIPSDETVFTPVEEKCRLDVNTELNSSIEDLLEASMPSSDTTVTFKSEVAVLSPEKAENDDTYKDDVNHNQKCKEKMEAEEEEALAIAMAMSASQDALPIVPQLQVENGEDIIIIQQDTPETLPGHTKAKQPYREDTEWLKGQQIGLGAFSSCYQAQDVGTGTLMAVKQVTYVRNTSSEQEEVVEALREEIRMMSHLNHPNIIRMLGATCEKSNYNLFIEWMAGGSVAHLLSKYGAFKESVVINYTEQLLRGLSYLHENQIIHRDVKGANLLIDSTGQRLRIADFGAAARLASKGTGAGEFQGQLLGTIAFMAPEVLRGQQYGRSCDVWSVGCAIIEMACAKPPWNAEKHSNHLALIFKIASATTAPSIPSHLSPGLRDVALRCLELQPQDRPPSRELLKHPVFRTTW

[9] = system: Tyrosine-protein kinase ABL1 (Homo sapiens), P00519 [M351T]; conditions: Compound concentration 1000.0 nM
[10] = target: T3, Mitogen-activated protein kinase 13 (Homo sapiens) (UniProt O15264); conditions: Compound concentration 1000.0 nM
T3 sequence (whole entry): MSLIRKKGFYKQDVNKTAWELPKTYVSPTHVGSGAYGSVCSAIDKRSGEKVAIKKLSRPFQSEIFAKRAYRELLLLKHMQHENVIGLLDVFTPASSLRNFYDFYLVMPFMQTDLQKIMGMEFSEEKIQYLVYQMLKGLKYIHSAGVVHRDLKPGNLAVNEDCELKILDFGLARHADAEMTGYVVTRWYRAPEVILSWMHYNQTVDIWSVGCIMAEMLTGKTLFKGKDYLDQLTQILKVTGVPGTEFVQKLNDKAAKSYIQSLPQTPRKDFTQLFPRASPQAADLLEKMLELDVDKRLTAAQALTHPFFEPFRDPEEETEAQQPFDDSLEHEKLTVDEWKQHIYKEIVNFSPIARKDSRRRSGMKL

[11] = target: T4, Serine/threonine-protein kinase NLK (Homo sapiens) (UniProt Q9UBE8); conditions: Compound concentration 1000.0 nM
T4 sequence (whole entry): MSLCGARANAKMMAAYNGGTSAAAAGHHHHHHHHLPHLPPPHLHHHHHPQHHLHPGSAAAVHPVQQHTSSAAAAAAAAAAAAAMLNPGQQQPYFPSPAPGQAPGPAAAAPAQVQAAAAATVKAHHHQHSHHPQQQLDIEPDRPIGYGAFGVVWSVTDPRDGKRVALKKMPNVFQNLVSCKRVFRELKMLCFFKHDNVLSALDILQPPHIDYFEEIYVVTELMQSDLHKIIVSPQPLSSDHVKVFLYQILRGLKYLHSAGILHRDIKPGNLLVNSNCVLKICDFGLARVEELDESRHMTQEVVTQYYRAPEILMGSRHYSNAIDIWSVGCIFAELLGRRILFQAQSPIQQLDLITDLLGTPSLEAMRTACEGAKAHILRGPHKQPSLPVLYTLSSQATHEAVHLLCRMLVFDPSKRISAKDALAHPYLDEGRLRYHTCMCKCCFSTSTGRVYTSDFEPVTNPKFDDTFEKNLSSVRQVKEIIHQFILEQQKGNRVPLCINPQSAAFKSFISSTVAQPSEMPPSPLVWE

[12] = system: Receptor-type tyrosine-protein kinase FLT3 (Homo sapiens), P36888 [D835Y]; conditions: Compound concentration 1000.0 nM
[13] = target: Ribosomal protein S6 kinase alpha-6 (Homo sapiens) (UniProt Q9UK32); conditions: Compound concentration 1000.0 nM
[14] = target: Ribosomal protein S6 kinase alpha-1 (Homo sapiens) (UniProt Q15418); conditions: Compound concentration 1000.0 nM
Ribosomal protein S6 kinase alpha-1 (Homo sapiens), sequence (Q15418 whole entry, canonical isoform): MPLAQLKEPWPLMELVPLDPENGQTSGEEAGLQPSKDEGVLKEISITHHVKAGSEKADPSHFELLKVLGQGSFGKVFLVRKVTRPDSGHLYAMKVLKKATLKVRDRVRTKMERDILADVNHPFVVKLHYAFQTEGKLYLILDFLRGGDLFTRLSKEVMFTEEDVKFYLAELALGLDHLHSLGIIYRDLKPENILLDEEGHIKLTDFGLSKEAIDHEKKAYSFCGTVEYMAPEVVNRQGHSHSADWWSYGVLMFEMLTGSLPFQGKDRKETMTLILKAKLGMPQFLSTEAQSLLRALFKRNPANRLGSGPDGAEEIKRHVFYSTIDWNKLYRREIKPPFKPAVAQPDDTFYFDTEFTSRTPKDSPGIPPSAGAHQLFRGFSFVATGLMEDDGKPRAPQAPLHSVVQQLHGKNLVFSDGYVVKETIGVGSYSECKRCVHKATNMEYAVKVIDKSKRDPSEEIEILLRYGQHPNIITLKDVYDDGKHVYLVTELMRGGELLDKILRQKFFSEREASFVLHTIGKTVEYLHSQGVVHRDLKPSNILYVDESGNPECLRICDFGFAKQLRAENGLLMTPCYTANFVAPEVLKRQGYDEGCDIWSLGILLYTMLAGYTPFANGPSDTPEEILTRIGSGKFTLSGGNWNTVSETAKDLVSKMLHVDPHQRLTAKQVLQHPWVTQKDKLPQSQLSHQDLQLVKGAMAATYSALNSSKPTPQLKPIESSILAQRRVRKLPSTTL

[15] = target: Casein kinase I isoform gamma-1 (Homo sapiens) (UniProt Q9HCP0); conditions: Compound concentration 1000.0 nM
Casein kinase I isoform gamma-1 (Homo sapiens), sequence (Q9HCP0 whole entry, looked up, the tested form may be a part, canonical isoform): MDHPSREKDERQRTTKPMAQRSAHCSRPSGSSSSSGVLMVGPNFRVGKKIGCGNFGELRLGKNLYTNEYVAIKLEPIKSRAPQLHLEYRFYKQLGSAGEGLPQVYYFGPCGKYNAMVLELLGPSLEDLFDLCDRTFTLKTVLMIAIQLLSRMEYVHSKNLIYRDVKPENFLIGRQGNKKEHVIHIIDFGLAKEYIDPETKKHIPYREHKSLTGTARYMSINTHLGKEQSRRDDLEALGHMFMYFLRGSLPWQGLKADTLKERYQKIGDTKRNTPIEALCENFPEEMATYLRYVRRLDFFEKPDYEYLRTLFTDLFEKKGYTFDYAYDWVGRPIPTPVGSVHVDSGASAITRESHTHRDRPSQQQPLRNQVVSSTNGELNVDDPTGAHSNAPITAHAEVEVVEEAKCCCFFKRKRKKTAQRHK

[16] = target: Epithelial discoidin domain-containing receptor 1 (Homo sapiens) (UniProt Q08345); conditions: Compound concentration 1000.0 nM
[17] = target: Mitogen-activated protein kinase 15 (Homo sapiens) (UniProt Q8TD08); conditions: Compound concentration 1000.0 nM
Mitogen-activated protein kinase 15 (Homo sapiens), sequence (Q8TD08 whole entry): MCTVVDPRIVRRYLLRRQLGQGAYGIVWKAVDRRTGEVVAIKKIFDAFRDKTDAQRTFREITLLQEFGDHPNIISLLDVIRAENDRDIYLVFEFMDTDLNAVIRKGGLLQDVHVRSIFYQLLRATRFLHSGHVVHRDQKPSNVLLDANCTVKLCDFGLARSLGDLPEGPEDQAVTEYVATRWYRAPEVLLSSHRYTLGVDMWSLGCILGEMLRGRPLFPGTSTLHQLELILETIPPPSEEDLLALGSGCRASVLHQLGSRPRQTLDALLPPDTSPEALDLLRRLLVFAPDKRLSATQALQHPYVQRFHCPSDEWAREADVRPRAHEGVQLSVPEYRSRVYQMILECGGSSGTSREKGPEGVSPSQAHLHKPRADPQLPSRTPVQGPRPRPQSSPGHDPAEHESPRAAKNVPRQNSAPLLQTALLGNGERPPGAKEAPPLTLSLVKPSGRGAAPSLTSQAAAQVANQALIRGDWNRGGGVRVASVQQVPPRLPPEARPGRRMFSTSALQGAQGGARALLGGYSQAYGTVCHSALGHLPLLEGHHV

[18] = target: Death-associated protein kinase 3 (Homo sapiens) (UniProt O43293); conditions: Compound concentration 1000.0 nM
Death-associated protein kinase 3 (Homo sapiens), sequence (O43293 whole entry, looked up): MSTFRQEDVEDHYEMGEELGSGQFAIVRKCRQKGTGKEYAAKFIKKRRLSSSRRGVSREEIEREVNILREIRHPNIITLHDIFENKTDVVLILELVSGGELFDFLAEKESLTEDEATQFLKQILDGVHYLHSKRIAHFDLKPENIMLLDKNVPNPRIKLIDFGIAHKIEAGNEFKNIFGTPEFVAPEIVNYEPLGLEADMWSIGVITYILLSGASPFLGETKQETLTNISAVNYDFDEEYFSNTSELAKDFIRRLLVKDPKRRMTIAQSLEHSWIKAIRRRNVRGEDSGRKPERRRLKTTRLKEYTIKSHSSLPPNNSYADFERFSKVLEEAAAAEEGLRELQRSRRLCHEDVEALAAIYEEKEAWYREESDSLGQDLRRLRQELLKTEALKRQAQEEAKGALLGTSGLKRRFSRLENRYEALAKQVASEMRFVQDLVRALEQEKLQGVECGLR

Cc1nc(C2CCN(C(=O)c3ccc(OC(F)(F)F)cc3N)CC2)c2ncc(N3CCN(C)CC3)cc2n1 [BAY-693]
inactive: residual activity [1] 78% | residual activity [2] 100% | inhibition [3] -3.81% | residual activity [4] 100% | residual activity [5] 100% | residual activity [6] 81% | residual activity [7] 100% | residual activity [8] 82% | residual activity [9] 100% | residual activity [10] 100% | residual activity [11] 100% | residual activity [12] 97% | residual activity [13] 100% | residual activity [14] 100% | residual activity [15] 100% | residual activity [16] 100% | residual activity [17] 100% | residual activity [18] 100%

CN1CCN(c2cnc3c(C4CCN(C(=O)c5ccc(OC(F)(F)F)cc5N)CC4)ncnc3c2)CC1 [BAY-885]
inactive: residual activity [1] 87% | residual activity [2] 100% | inhibition [3] 2.02% | residual activity [4] 100% | residual activity [5] 100% | residual activity [6] 98% | residual activity [7] 100% | residual activity [8] 100% | residual activity [9] 100% | residual activity [10] 100% | residual activity [11] 100% | residual activity [12] 100% | residual activity [13] 100% | residual activity [14] 100% | residual activity [15] 100% | residual activity [16] 100% | residual activity [17] 100% | residual activity [18] 91%
